Experimental data taken from patent EP2698385A1, “Detection of synthetic cannabinoids” (priority 2012, dated 2014).
Read-outs that look alike come from different tables or passages of the source.

Experiments:
[1] = test system: antiserum raised to Immunogen I (Hapten A-BTG); experiment: Competitive ELISA microtiter plate assay (Example 19), antiserum raised to Immunogen I, Hapten A-HRP conjugate as detection reagent; assay type: binding, sheep; details: for binding to the antibody produced from Immunogen I: result in words
Description: Aqueous solutions of the immunogens prepared in examples 5 and 13 were formulated with Freund's Complete Adjuvant (FCA) to form emulsions consisting of 2mg/ml Immunogen I and 2mg/ml of Immunogen II in 50%(v/v) FCA. Three sheep were immunised with each emulsion (1° immunisations), 0.25ml being intramuscularly injected at four sites in the rump of each animal. Subsequent immunisations (boosts 2-8) contained 1mg/ml Immunogen I and 1mg/ml Immunogen II. All boosts were emulsified in 50%(v/v) Freund's Incomplete Adjuvant (FIA) and administered to the appropriate sheep in the same manner as the 1° immunisations, at monthly intervals. Blood sampling took place 7-14 days after each boost. Each sample was processed to produce antiserum, which was further purified by caprylic acid and ammonium sulphate precipitation to yield an immunoglobulin (Ig) fraction. The Ig fraction was evaluated by competitive ELISA microtiter plate assay, as described in example 19 below.
Example 19: Development of competitive ELISA for JWH synthetic cannabinoids and metabolites. • (a) The wells of an enhanced binding 96 well polystyrene microtiter plate were coated with the Ig fraction of the antiserum raised to Immunogen I (Hapten A-BTG - example 5) and diluted in 10mM Tris, pH8.5 (125µl/well). The appropriate antibody coating concentration was determined using standard ELISA checkerboard techniques. The plate was incubated for 2 hours at 37°C, washed 4 times over a 10-minute period with Tris buffered saline containing Tween 20 (TBST) and tapped dry. Standard solutions of JWH synthetic cannabinoids, metabolites and selected molecules were prepared in TBST and 50µl of each was added to the appropriate wells. 75µl of conjugate (Hapten A-HRP) diluted in Tris buffer containing EDTA, D-mannitol, sucrose, thimerosal and BSA, was added to each of the wells. The appropriate dilution of conjugate was also determined using standard ELISA checkerboard techniques. The plate was incubated at 25°C for 1 hour. The excess unbound conjugate was removed by washing 6 times over a 10-minute period with TBST and tapped dry. 125µl of tetramethylbenzedine (TMB) substrate solution was added to each well of the plate that was then incubated for 15-20 minutes in the dark at room temperature. The reaction was terminated by addition of 125µl of 0.2M sulphuric acid to each well. The absorbance was then measured at 450nm using a microtiter plate reader. Employing each series of standards, calibration curves were generated and these were used to determine the specificity of the immunoassay for the JWH synthetic cannabinoids, metabolites and selected molecules. The results of this study are presented in Tables 1 to 3, cross-reactivity being calculated according to the following formula: %CR = […] /IC50,CR X 100 [formula] Where %CR is the percentage cross-reactivity, IC50, YWH-018 is the concentration of JWH-018 that causes 50% displacement of signal and IC50, CR is the concentration of JWH synthetic cannabinoid/metabolite/selected molecule that causes 50% displacement of signal.
Table 1: Data generated from a competitive microtiter plate assay for JWH synthetic cannabinoids and metabolites, employing antiserum raised to Immunogen II (Hapten B-BTG) and conjugate (Hapten A-HRP) as detection reagent. (b) In a similar manner to that described in Example 19(a), the wells of a 96 well microtiter plate were coated with the Ig fraction of the antiserum raised to Immunogen II ([…]). Conjugate (Hapten A-HRP) was employed as a detection reagent. […]

[2] = test system: Antibody to Immunogen I; assay type: binding, sheep
How it was run: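 Sheep anti-Immunogen I IgG coated on plates, then JWH-018 standards (0–40 ng/ml) competed with hapten-HRP conjugate for 1 h at 25°C. TMB read-out at 450 nm, 4-parameter fit. IC50 is the standard concentration giving 50% B/B0; cross-reactivity of related cannabinoids taken from the calibration curves.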

[3] = Table 2, 40 ng/ml highest concentration tested
[4] = Table 2, CR based on 100% for JWH-018
[5] = Cross-reactants at 100 ng/ml, Antibody to Immunogen I

| SMILES | IC50 [1, 3] | % Cross-reactivity [1, 4] | %B/B0 [2, 5] | binding to the antibody produced from Immunogen I [1] | also measured |
| --- | --- | --- | --- | --- | --- |
| O=C(c1cccc2ccccc12)c1c[nH]c2ccccc12 [3-(1-naphthoyl)-1H-Indole, 3-(1-naphthoyl)-1H-indole] | 3.84 ng/mL | 70.57% | 15.63% |  |  |
| CCCCCn1cc(C(=O)c2cccc3ccccc23)c2c(O)cccc21 [JWH-018 4-hydroxyindole metabolite] | 25.51 ng/mL | 10.62% | 46.39% |  |  |
| CCCCCn1cc(C(=O)c2cccc3ccccc23)c2cc(O)ccc21 [JWH-018 5-hydroxyindole metabolite] | 0.39 ng/mL | 694.87% | 11.79% | able to bind |  |
| CCCCCn1cc(C(=O)c2cccc3ccccc23)c2ccc(O)cc21 [JWH-018 6-hydroxyindole metabolite] | 2.04 ng/mL | 132.84% | 8.07% | able to bind |  |
| O=C(c1cccc2ccccc12)c1cn(CCCCCO)c2ccccc12 [JWH-018 N-(5-hydroxypentyl) metabolite] | 0.18 ng/mL | 1505.56% | 3.50% |  |  |
| O=C(O)CCCCn1cc(C(=O)c2cccc3ccccc23)c2ccccc21 [JWH-018 N-pentanoic acid metabolite] | 0.42 ng/mL | 645.24% | 4.51% |  |  |
| CCCCCn1cc(C(=O)c2cccc3ccccc23)c2ccccc21 [JWH-018] | 2.71 ng/mL | 100.00% | 5.19% | able to bind | IC50 ([1]; first Table 4, Immunogen I): 2.30 ng/mL; % Cross-reactivity ([1]; first Table 4, Immunogen I, JWH-018 = 100): 100.00%; %B/B0 ([2]; JWH-018 standard 0.625 ng/ml): 77%; %B/B0 ([2]; JWH-018 standard 1.25 ng/ml): 62%; %B/B0 ([2]; JWH-018 standard 2.5 ng/ml): 44%; %B/B0 ([2]; JWH-018 standard 5 ng/ml): 31%; %B/B0 ([2]; JWH-018 standard 10 ng/ml): 20%; %B/B0 ([2]; JWH-018 standard 20 ng/ml): 14%; %B/B0 ([2]; JWH-018 standard 40 ng/ml): 9%; IC50 ([2]; Table 3a standard curve, standard concentration which produces 50% B/B0): 2.016 ng/mL |
| CCCCn1cc(C(=O)c2cccc3ccccc23)c2ccccc21 [JWH-073] | 0.93 ng/mL | 291.40% | 3.56% |  |  |
| CCCCCn1cc(C(=O)c2ccc(Cl)c3ccccc23)c2ccccc21 [JWH-398] |  | << 6.78% | 60.31% |  | IC50 ng/ml [1, 3]: >> 40 ng/ml |
| O=C(c1cccc2ccccc12)c1cn(CCN2CCOCC2)c2ccccc12 [WIN 55,225 (other name JWH-200), JWH-200] | 0.31 ng/mL | 874.19% | 3.51% |  |  |
